Values quoted from earlier work, collected in patent US12454714B2, “Monbretin A (MbA) synthesis using a heterologous nucleic acid(s) encoding A MbA pathway enzyme” (The University of British Columbia, priority 2018, dated 2025).
pKi: −log10 of the molar value. “And” between values parts separate entries of the source, which are not always exact repeats. Equal values may be shown once. Read-outs that look alike come from different tables or passages of the source.

Assays:
[1] = target: T1, human pancreatic α-amylase (HPA) (Homo sapiens, UniProt P04746)
T1 sequence (P04746 16-511): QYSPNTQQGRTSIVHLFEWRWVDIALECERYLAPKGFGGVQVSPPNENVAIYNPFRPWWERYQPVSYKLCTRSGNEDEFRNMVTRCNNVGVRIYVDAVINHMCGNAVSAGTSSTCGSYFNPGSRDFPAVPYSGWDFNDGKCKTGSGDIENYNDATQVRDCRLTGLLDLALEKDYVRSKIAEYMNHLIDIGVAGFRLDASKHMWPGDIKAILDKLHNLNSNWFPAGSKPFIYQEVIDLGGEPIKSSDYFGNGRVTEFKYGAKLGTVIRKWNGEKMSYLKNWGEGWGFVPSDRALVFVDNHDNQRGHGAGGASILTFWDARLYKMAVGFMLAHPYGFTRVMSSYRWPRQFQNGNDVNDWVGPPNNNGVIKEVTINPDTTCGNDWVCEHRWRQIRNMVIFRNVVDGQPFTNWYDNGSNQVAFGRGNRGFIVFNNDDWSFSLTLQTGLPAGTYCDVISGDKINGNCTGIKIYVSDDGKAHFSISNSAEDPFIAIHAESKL

gut α-glucosidases = details: selectivity versus HPA
[2] = system: “Zucker diabetic fatty” rats

HPA inhibition, in words [1]	pKi [1]	pKi ([1]; listed as Mini-MbA)	Structure (SMILES)	effect on the gut α-glucosidases (gut α-glucosidases)	blood-glucose-lowering activity [2]
potent and selective inhibitors	8.10 and 8.09	–	CC1OC(OC2COC(Oc3c(O)cc(-c4oc5cc(O)cc(O)c5c(=O)c4OC4OC(C)C(O)C(O)C4OC4OC(COC(=O)C=Cc5ccc(O)c(O)c5)C(O)C(O)C4OC4OC(CO)C(O)C(O)C4O)cc3O)C(O)C2O)C(O)C(O)C1O [MbA, myricetin 3-O-(glucosyl-6′-O-caffeoyl)-1,2-β-D-glucosyl 1,2-α-L-rhamnoside 4′-O-α-L-rhamnosyl 1,4-β-D-xyloside]	does not affect	effective blood-glucose-lowering
–	7.38	–	CC1OC(Oc2c(-c3cc(O)c(O)c(O)c3)oc3cc(O)cc(O)c3c2=O)C(OC2OC(COC(=O)C=Cc3ccc(O)c(O)c3)C(O)C(O)C2OC2OC(CO)C(O)C(O)C2O)C(O)C1O [MbA-XR^2, myricetin 3-O-(glucosyl-6′-O-caffeoyl)-1,2-β-D-glucosyl 1,2-α-L-rhamnoside]	–	–
potent and selective inhibitors	7.03	7.05	CC1OC(Oc2c(-c3cc(O)c(O)c(O)c3)oc3cc(O)cc(O)c3c2=O)C(OC2OC(COC(=O)C=Cc3ccc(O)c(O)c3)C(O)C(O)C2O)C(O)C1O [mini-MbA, myricetin 3-O-(6′-O-caffeoyl)-β-D-glucosyl 1,2-α-L-rhamnoside]	–	–
